Assay results taken from PubChem BioAssay AID330 (DTP/NCI, 2004).
Several values for one entry are separate records, joined by “and”; a condition that tells them apart may be missing. Equal values may be shown once. Toxic doses and inconclusive results are not listed. How the source made its calls: active means survival T/C of 150% or more; inactive means T/C below 125% in these data.

System: P388 leukemia ip, CD2F1 mice, survival T/C
Assay: NCI In Vivo Anticancer Drug Screen. Data for tumor model P388 Leukemia (intraperitoneal) in CD2F1 (CDF1) mice
Details: endpoint: median survival time, higher = longer survival
Summary of the method: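 Mice carrying the transplanted tumor received test compound or vehicle. Survival was recorded in each group, and the value is the treated-group measurement divided by that of the vehicle-treated control group.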

[1] = dose: 50.0 mg/kg/injection, schedule: Q01DX005 (ip), vehicle: Klucel (hydroxypropylcellulose) (HPC)
[2] = dose: 100.0 mg/kg/injection, schedule: Q01DX005 (ip), vehicle: Klucel (hydroxypropylcellulose) (HPC)
[3] = dose: 200.0 mg/kg/injection, schedule: Q01DX005 (ip), vehicle: Klucel (hydroxypropylcellulose) (HPC)
[4] = dose: 50.0 mg/kg/injection, schedule: Q01DX009 (ip), vehicle: saline
[5] = dose: 100.0 mg/kg/injection, schedule: Q01DX009 (ip), vehicle: saline
[6] = dose: 200.0 mg/kg/injection, schedule: Q01DX009 (ip), vehicle: saline
[7] = dose: 50.0 mg/kg/injection, schedule: Q01DX009 (ip), vehicle: saline with Tween-80
[8] = dose: 100.0 mg/kg/injection, schedule: Q01DX009 (ip), vehicle: saline with Tween-80
[9] = dose: 200.0 mg/kg/injection, schedule: Q01DX009 (ip), vehicle: saline with Tween-80
[10] = dose: 50.0 mg/kg/injection, schedule: Q01DX005 (ip), vehicle: saline with Tween-80
[11] = dose: 100.0 mg/kg/injection, schedule: Q01DX005 (ip), vehicle: saline with Tween-80
[12] = dose: 200.0 mg/kg/injection, schedule: Q01DX005 (ip), vehicle: saline with Tween-80
[13] = dose: 25.0 mg/kg/injection, schedule: Q01DX005 (ip), vehicle: saline
[14] = dose: 60.0 mg/kg/injection, schedule: Q01DX005 (ip), vehicle: saline with Tween-80
[15] = dose: 100.0 mg/kg/injection, schedule: Q04DX003 (ip), vehicle: saline
[16] = dose: 400.0 mg/kg/injection, schedule: Q04DX003 (ip), vehicle: saline
[17] = dose: 12.5 mg/kg/injection, schedule: Q01DX005 (ip), vehicle: saline with Tween-80
[18] = dose: 25.0 mg/kg/injection, schedule: Q01DX005 (ip), vehicle: saline with Tween-80

Measured: T/C

O=S(=O)(C1=NOC(c2ccccc2)C1)c1ccccc1 (stereo not given)
inactive: [1] 99 % of control | [2] 95 % of control | [3] 93 % of control

Cc1cc(S(=O)(=O)[O-])ccc1-n1nc(C)[c-](N=Nc2cc(S(=O)(=O)[O-])ccc2C(=O)[O-])c1=O.[Cr+3].[Na+].[OH-] (stereo not given)
inactive: [4] 104 % of control | [5] 104 % of control | [6] 108 % of control

CC1CCC(OC(=O)NCCCl)CC1 (stereo not given)
inactive: [1] 97 % of control | [2] 96 % of control | [3] 101 % of control

O=C(CCl)Nc1c(Br)cc(F)cc1Br
inactive: [7] 88 % of control | [8] 99 % of control | [9] 104 % of control

CCOC(=O)C(Cc1csc2ccc(Cl)cc12)(NC(C)=O)C(=O)OCC
inactive: dose: 50.0 mg/kg/injection, schedule: Q01DX009 (ip), vehicle: Klucel (hydroxypropylcellulose) (HPC) 96 % of control | dose: 100.0 mg/kg/injection, schedule: Q01DX009 (ip), vehicle: Klucel (hydroxypropylcellulose) (HPC) 96 % of control | dose: 200.0 mg/kg/injection, schedule: Q01DX009 (ip), vehicle: Klucel (hydroxypropylcellulose) (HPC) 94 % of control

Cc1cc2nc3[nH]c(=O)c4ccccc4c(=O)n3c2cc1C
inactive: dose: 100.0 mg/kg/injection, schedule: Q01DX001 (ip), vehicle: Klucel (hydroxypropylcellulose) (HPC) 98 % of control | dose: 200.0 mg/kg/injection, schedule: Q01DX001 (ip), vehicle: Klucel (hydroxypropylcellulose) (HPC) 92 % of control

CCOC(=O)NC(CC(C)C)C(=O)NC(CC(C)C)C(=O)OC(C)(C)C (stereo not given)
inactive: [10] 98 % of control | [11] 99 % of control | [12] 100 % of control

CNC[C@@H](O)c1ccc(O)c(O)c1
inactive: dose: 0.78 mg/kg/injection, schedule: Q01DX009 (ip), vehicle: suspension in saline 97 % of control | dose: 1.56 mg/kg/injection, schedule: Q01DX009 (ip), vehicle: suspension in saline 104 % of control | dose: 3.12 mg/kg/injection, schedule: Q01DX009 (ip), vehicle: suspension in saline 104 % of control

CCOc1ccc(NC(=O)C2=C(C)NC(C)=C(C(=O)Nc3ccc(OCC)cc3)C2c2cccc([N+](=O)[O-])c2)cc1
inactive: dose: 15.0 mg/kg/injection, schedule: Q01DX005 (ip), vehicle: Klucel (hydroxypropylcellulose) (HPC) 98 % of control | dose: 30.0 mg/kg/injection, schedule: Q01DX005 (ip), vehicle: Klucel (hydroxypropylcellulose) (HPC) 104 % of control | dose: 60.0 mg/kg/injection, schedule: Q01DX005 (ip), vehicle: Klucel (hydroxypropylcellulose) (HPC) 92 % of control and 97 % of control

O=C1c2cc(Oc3ccccc3)c(S(=O)(=O)O)c(S(=O)(=O)O)c2C(=O)c2c(O)ccc(O)c21
inactive: [13] 104 % of control | dose: 50.0 mg/kg/injection, schedule: Q01DX005 (ip), vehicle: saline 107 % of control | dose: 100.0 mg/kg/injection, schedule: Q01DX005 (ip), vehicle: saline 94 % of control | dose: 200.0 mg/kg/injection, schedule: Q01DX005 (ip), vehicle: saline 94 % of control

CN1C(c2ccccc2)=NN=C(C(F)(F)F)N1C
inactive: dose: 100.0 mg/kg/injection, schedule: Q01DX001 (ip), vehicle: distilled water + Tween-80 + alcohol 98 % of control | dose: 200.0 mg/kg/injection, schedule: Q01DX001 (ip), vehicle: distilled water + Tween-80 + alcohol 101 % of control | dose: 400.0 mg/kg/injection, schedule: Q01DX001 (ip), vehicle: distilled water + Tween-80 + alcohol 106 % of control

N#Cc1cnn(-c2cc(Cl)c(Cl)cc2Cl)c1N
inactive: dose: 100.0 mg/kg/injection, schedule: Q04DX003 (ip), vehicle: saline with Tween-80 99 % of control | dose: 200.0 mg/kg/injection, schedule: Q04DX003 (ip), vehicle: saline with Tween-80 103 % of control | dose: 400.0 mg/kg/injection, schedule: Q04DX003 (ip), vehicle: saline with Tween-80 111 % of control

CCCCC1CN1C(=N)OCC (stereo not given)
inactive: dose: 15.0 mg/kg/injection, schedule: Q01DX005 (ip), vehicle: saline with Tween-80 100 % of control | [13] 100 % of control | dose: 30.0 mg/kg/injection, schedule: Q01DX005 (ip), vehicle: saline with Tween-80 96 % of control | [14] 101 % of control and 95 % of control

NC(=O)CC1(c2ccccc2)CCCCC1
inactive: [7] 111 % of control | [8] 102 % of control | [9] 104 % of control

NC(=O)c1oc([N+](=O)[O-])c(-c2ccccc2)c1-c1ccccc1
inactive: [10] 99 % of control | [11] 102 % of control | [12] 93 % of control

CC1(C)CC(=O)C2OC21 (stereo not given)
inactive: dose: 100.0 mg/kg/injection, schedule: Q04DX002 (ip), vehicle: saline 107 % of control and 95 % of control | dose: 200.0 mg/kg/injection, schedule: Q04DX002 (ip), vehicle: saline 101 % of control | dose: 400.0 mg/kg/injection, schedule: Q04DX002 (ip), vehicle: saline 106 % of control and 107 % of control

O=S(=O)(Cc1ccccc1)C1CC1
inactive: [4] 122 % of control | dose: 50.0 mg/kg/injection, schedule: Q01DX009 (ip), vehicle: suspension in saline 104 % of control and 106 % of control | [5] 119 % of control | dose: 100.0 mg/kg/injection, schedule: Q01DX009 (ip), vehicle: suspension in saline 108 % of control and 94 % of control | [6] 118 % of control | dose: 200.0 mg/kg/injection, schedule: Q01DX009 (ip), vehicle: suspension in saline 102 % of control and 97 % of control | dose: 400.0 mg/kg/injection, schedule: Q01DX009 (ip), vehicle: saline 102 % of control | dose: 400.0 mg/kg/injection, schedule: Q01DX009 (ip), vehicle: suspension in saline 100 % of control and 105 % of control

Cc1cc2nc(C)nn2c(C)n1
inactive: dose: 25.0 mg/kg/injection, schedule: Q04DX003 (ip), vehicle: saline 104 % of control | dose: 50.0 mg/kg/injection, schedule: Q04DX003 (ip), vehicle: saline 96 % of control | [15] 111 % of control and 88 % of control | [16] 88 % of control

CC1=CC[C@@H]2[C@@H](CC[C@@]2(C)O)C(C)(C)[C@H]1CC[C@@H]1[C@@]2(C)CC[C@@H](O)C(C)(C)O[C@@H]2CC[C@]1(C)O
inactive: dose: 8.0 mg/kg/injection, schedule: Q01DX005 (ip), vehicle: saline + Tween-80 + alcohol 103 % of control | dose: 16.0 mg/kg/injection, schedule: Q01DX005 (ip), vehicle: saline + Tween-80 + alcohol 103 % of control | dose: 32.0 mg/kg/injection, schedule: Q01DX005 (ip), vehicle: saline + Tween-80 + alcohol 97 % of control | dose: 64.0 mg/kg/injection, schedule: Q01DX005 (ip), vehicle: saline + Tween-80 + alcohol 96 % of control

O=C(O)CCCOc1ccc(Cl)cc1Cl
inactive: [15] 109 % of control | dose: 200.0 mg/kg/injection, schedule: Q04DX003 (ip), vehicle: saline 100 % of control | [16] 100 % of control

CC1CC=[N+]([O-])C1(C)C (stereo not given)
inactive: dose: 12.5 mg/kg/injection, schedule: Q01DX009 (ip), vehicle: saline with Tween-80 95 % of control | dose: 25.0 mg/kg/injection, schedule: Q01DX009 (ip), vehicle: saline with Tween-80 102 % of control | [7] 102 % of control and 86 % of control

CCNC(CC)CCCNc1cc(OC)cc2cccnc12 (stereo not given)
inactive: dose: 6.25 mg/kg/injection, schedule: Q01DX005 (ip), vehicle: saline with Tween-80 106 % of control | [17] 98 % of control | [18] 102 % of control

COC(=O)c1nc(=S)[nH]c(C(=O)OC)c1C(=O)c1ccc(C)cc1
inactive: [14] 106 % of control | dose: 120.0 mg/kg/injection, schedule: Q01DX005 (ip), vehicle: saline with Tween-80 100 % of control | dose: 240.0 mg/kg/injection, schedule: Q01DX005 (ip), vehicle: saline with Tween-80 100 % of control

COc1ccc2c(c1OC)C(C(Cl)(Cl)Cl)N1CCc3cc4c(cc3C1=C2)OCO4 (stereo not given)
inactive: [7] 93 % of control | [8] 90 % of control | [9] 92 % of control

CCn1c2ccccc2c2cc(NC(N)=S)ccc21
inactive: [17] 100 % of control | [18] 102 % of control | [10] 100 % of control and 98 % of control

C[CH2][Ge]([CH2]C)[CH2]/C(C)=C(/C)[CH2][Ge]([CH2]C)[CH2]C
inactive: [7] 100 % of control | [8] 108 % of control
